Measurements: patent publication US20040121031A1, “Novel topical skin care and nutraceutical applications of Glabridin or extracts containing a defined amount (4-90%) of Glabridin” (priority 2002, published 2004)

Test: Ease of solubility in cosmetically acceptable solvents
Assay type: physicochemical
Conditions: in contrast to Ursolic acid
Text: In order to formulate an effective cosmetic product, the individual ingredients have to be solublized in cosmetically acceptable solvents. The following table indicates the ease of solubility of glabridin and the licorice extract in contrast to Ursolic acid, a terpenoid compound used in cosmetics for similar claims.

SMILES: CC1(C)C=Cc2c(ccc3c2OC[C@@H](c2ccc(O)cc2O)C3)O1 [glabridin, Glabridin]
- ease of solubility: much more easily soluble than Ursolic acid
